Measured values as given in the NIST ThermoML archive (doi:10.1021/acs.jced.5b00807).
Numbers after ± are expanded uncertainties.

Assays:
[1] = Molar enthalpy of transition or fusion; details: Crystal 2; DSC
[2] = DSC

SMILES | Molar enthalpy of transition or fusion [1] [kcal/mol] | Triple point temperature ([2]; Crystal 1) [K] | Triple point temperature ([2]; Crystal 2) [K] | Triple point temperature ([2]; Crystal) [K]
CCCCCCCCCCCCCCCC[N+](C)(C)C.O=S(=O)([N-]S(=O)(=O)C(F)(F)F)C(F)(F)F | 7.03 ± 0.717 | 335 ± 4 | 319 ± 4 | –
CC[N+](C)(C)C.O=S(=O)([N-]S(=O)(=O)C(F)(F)F)C(F)(F)F [ethyltrimethylammonium bis(trifluoromethylsulfonyl)imide] | – | – | – | 383 ± 4
O=S(=O)([N-]S(=O)(=O)C(F)(F)F)C(F)(F)F.[Li+] [lithium bis((trifluoromethyl)sulfonyl)amide] | 2.84 ± 0.287 | 508 ± 4 | 422 ± 4 | –
CCCC[N+](CCCC)(CCCC)CCCC.O=S(=O)([N-]S(=O)(=O)C(F)(F)F)C(F)(F)F [tetrabutylammonium bis[(trifluoromethyl)sulfonyl]imide] | – | – | – | 365 ± 4
